The source of these data is patent publication US10023593B2, “ALK kinase inhibitor, and preparation method and uses thereof” (BEIJING PEARL BIOTECHNOLOGY LIMITED LIABILITY COMPANY, priority 2014, dated 2018).

Usually IC50 stands for the point on the concentration scale where inhibition reaches its midpoint. Low values mean greater potency, high ones weaker potency.

In this assay the target is cytochrome P450 2D6 (Homo sapiens, UniProt P10635). The assay can be described thus: Inhibitory activity on cytochrome P450 2D6. The format is in vitro ADME. As to conditions: no significant inhibition.
Chain of cytochrome P450 2D6 (P10635 whole entry): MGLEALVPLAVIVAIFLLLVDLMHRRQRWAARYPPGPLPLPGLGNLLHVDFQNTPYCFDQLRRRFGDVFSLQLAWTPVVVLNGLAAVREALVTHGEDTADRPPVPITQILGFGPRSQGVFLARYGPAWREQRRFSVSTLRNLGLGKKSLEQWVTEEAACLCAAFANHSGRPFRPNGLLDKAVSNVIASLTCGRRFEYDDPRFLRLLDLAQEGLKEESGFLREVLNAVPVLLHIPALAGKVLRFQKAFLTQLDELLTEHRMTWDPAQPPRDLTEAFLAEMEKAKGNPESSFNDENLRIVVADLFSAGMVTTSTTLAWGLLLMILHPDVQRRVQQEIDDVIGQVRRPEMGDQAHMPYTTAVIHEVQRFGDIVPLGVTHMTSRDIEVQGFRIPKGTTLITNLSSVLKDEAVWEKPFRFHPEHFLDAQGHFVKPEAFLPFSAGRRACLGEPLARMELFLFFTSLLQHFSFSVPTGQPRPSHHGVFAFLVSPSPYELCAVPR
With `Cc1cc(Nc2ncc(Cl)c(Nc3cn(C)nc3S(=O)(=O)CC(C)C)n2)c(OC2CC2)cc1C1CCN(C)CC1` [Final product 57], the IC50 was greater than 10 µM.

As for `COCC1CC(c2cc(OC3CC3)c(Nc3ncc(Cl)c(Nc4cn(C)nc4S(=O)(=O)C(C)C)n3)cc2C)CCN1C` (stereo not shown) [Final product 77], the 50% inhibitory concentration (IC50) is greater than 10 µM.

As for `COCCN1CCC(c2cc(OC3CC3)c(Nc3ncc(Cl)c(Nc4cn(C)nc4S(=O)(=O)C(C)C)n3)cc2C)CC1` [Final product 82], the half-inhibitory concentration (IC50) is greater than 10 µM.

Compound `Cc1cc(Nc2ncc(Cl)c(Nc3cn(C)nc3S(=O)(=O)C(C)C)n2)c(OC2CC2)cc1C1CCC(NS(C)(=O)=O)CC1` (stereo not shown) [Final product 205, N-(4-(4-(5-chloro-4-(3-(isopropylsulfonyl)-1-methyl-1H-pyrazol-4-amine)pyrimidin-2-amine)-5-cyclopropoxy-2-methylphenyl)cyclohexyl)methanesulfonamide] had a half-inhibitory concentration (IC50) greater than 10 µM.
